From patent US5554542A, “Immunoassay for isothiazolones” (Rohm and Haas Company, priority 1993, dated 1996)

Experiments:
Assay type in all cases: binding, mouse
[1] = system: antibodies in hybridoma culture supernatants (CF10, EH9, EC2, EC2 IB8); experiment: CIEIA of hybridoma culture supernatants; conditions: for Inhibition of antibody binding to coating antigen: cell culture 89-147EH9, coating antigen 651-BSA; for Inhibitors (Absorbance): coating 651-BSA
Description: (§1) The supernatants from wells with growing colonies of hybridomas were screened using CIEIA. Ninety-six well polystyrene EIA ([…]) plates were coated with 100 μl of 651 conjugated to BSA (651-BSA) for at least two hours at room temperature or 16 hours at 4° C. Unbound material was washed from the wells with five washes of PBS-T. The wells then received 50 μl of buffer alone (PBS-T) or inhibitors, either 651 or 573, each diluted to 2 ppm in buffer. The wells then received 50 μl of supernatant from each cell culture, so that each supernatant was reacted with either buffer, 651 or 573 (inhibitors). […] The wells were incubated for 30-60 minutes at room temperature. They were then washed five times with PBS-T to remove unbound material and each well then received 100 μl of a 1 μg/ml solution of biotinylated horse anti-mouse IgG (Vector Laboratories, Burlingame, Calif.), and the assay continued as described for the ELISA, supra.
If the antibodies in a supernatant were reactive with one or both of the inhibitors in solution in the wells, the antibody molecules, or a percentage of the antibody molecules, would bind to the inhibitors, and would therefore form an antibody-inhibitor complex which would stay in solution and be removed from the plate during the washing step. In such a case, the binding of the antibody to the inhibitor would reduce the number of antibody molecules available to bind to the coating antigen, 651-BSA. Because fewer antibody molecules are attached to the 651-BSA, there is a reduction in the number of biotinylated horse anti-mouse IgG molecules bound, resulting in fewer molecules of avidin-peroxidase complex being bound, resulting in reduced hydrolysis of the substrate, leading ultimately to lower absorbances.
It is possible to manipulate the CIEIA to achieve greater inhibition by varying the concentrations of coating antigen, antibodies and detection molecules (such as the horse anti-mouse IgG and the avidin-peroxidase complex). Such "optimization" of the CIEIA is used to obtain higher levels of sensitivity and allow the use of lower concentrations (i.e. higher dilutions) of the monoclonal antibodies.

[2] = system: antibodies produced by cell culture 89-147EH9; experiment: CIEIA for detection of biocides, four inhibitors at several concentrations; conditions: for 10 Minute Absorbances × 1000: no inhibitor 515
Description: as §1, with “The wells then received 50 μl of buffer alone (PBS-T) or inhibitors, either 651 or 573, each diluted to 2 ppm in buffer.” left out

[3] = system: antibodies of 89-147EH9 clones; experiment: CIEIA reactivity of 89-147EH9 clones with compounds 651 and 573
Description: as §1
In order to assure that the antibodies reactive with compound 651 were produced by cells of the identical genetic makeup, it was necessary to derive clones of cell culture 89--147EH9. Cloning was accomplished by first determining the total number of viable cells in a population of 89-147EH9 cells. The cell population was then diluted to a density of 4-5 cells per ml of cell culture medium. Two hundred μl of this cell suspension was then planted in each well of four 96 well cell culture dishes, designated I-IV. Fourteen days later, each well was checked by microscopic evaluation for growing colonies of cells. Those with only a single loci of cells were designated monoclonal.
Subsequently, each colony was tested for reactivity in the ELISA described previously. Of the colonies, several were selected for expansion and retesting by CIEIA for reactivity with both 651 and 573.

[4] = system: antibodies in hybridoma culture supernatants (CF10, EH9, EC2, EC2 IB8); experiment: CIEIA of hybridoma culture supernatants; conditions: culture EH9, supernatant dilution 1:4, tested versus 0.4 ppm of inhibitor, coating 651-BSA; no inhibitor 0.515
[5] = culture CF10, supernatant dilution 1:2, inhibitor 1 PPM, no inhibitor 0.485
[6] = culture CF10, supernatant dilution 1:2.5, inhibitor 1 PPM, no inhibitor 0.121
[7] = culture EC2, supernatant dilution 1:2, inhibitor 1 PPM, no inhibitor 0.847
[8] = culture EC2, supernatant dilution 1:12, inhibitor 1 PPM, no inhibitor 0.917
[9] = culture EC2 IB8 (a clone of 89147EC2), supernatant dilution 1:6, inhibitor 1 PPM, no inhibitor 0.169
[10] = culture EH9, supernatant dilution 1:2, inhibitor 1 PPM, no inhibitor 0.170
[11] = culture EH9, supernatant dilution 1:2.5, inhibitor 1 PPM, no inhibitor 0.386
[12] = inhibitor concentration 0.08 ppm
[13] = inhibitor concentration 0.4 ppm
[14] = clone IA5, inhibitor 1 PPM, PBS 528
[15] = clone ID5, inhibitor 1 PPM, PBS 584
[16] = clone ID8, inhibitor 1 PPM, PBS 746
[17] = clone IID1, inhibitor 1 PPM, PBS 060
[18] = clone IIIH6, inhibitor 1 PPM, PBS 647
[19] = clone IVE1, inhibitor 1 PPM, PBS 818
[20] = clone IVE4, inhibitor 1 PPM, PBS 595
[21] = clone IVF12, inhibitor 1 PPM, PBS 090
[22] = clone IVH2, inhibitor 1 PPM, PBS 680

Compound: Cn1sccc1=O [compound 573, 2-methyl-3-isothiazolone]
- Inhibition of antibody binding to coating antigen [1]: inhibitable
- Inhibitors (Absorbance) [1, 5]: 0.479
- Inhibitors (Absorbance) [1, 6]: 0.099
- Inhibitors (Absorbance) [1, 7]: 0.520
- Inhibitors (Absorbance) [1, 8]: 0.872
- Inhibitors (Absorbance) [1, 9]: 0.121
- Inhibitors (Absorbance) [1, 10]: 0.117
- Inhibitors (Absorbance) [1, 11]: 0.135
- 10 Minute Absorbances × 1000 [2, 12]: 590
- 10 Minute Absorbances × 1000 [2, 13]: 461
- 10 Minute Absorbances × 1000 ([2]; inhibitor concentration 2 ppm): 504
- 10 Minute Absorbances × 1000 ([2]; inhibitor concentration 10 ppm): 344
- 10 Minute Absorbances × 1000 ([2]; inhibitor concentration 50 ppm): 191
- % I (percentage inhibition) ([3]; clone IA5, inhibitor 1 PPM): 10.8%
- Absorbances × 1000 [3, 14]: 471
- % I (percentage inhibition) ([3]; clone ID5, inhibitor 1 PPM): 0.0%
- Absorbances × 1000 [3, 15]: 671
- % I (percentage inhibition) ([3]; clone ID8, inhibitor 1 PPM): 0.0%
- Absorbances × 1000 [3, 16]: 1068
- % I (percentage inhibition) ([3]; clone IID1, inhibitor 1 PPM): < 1.0%
- Absorbances × 1000 [3, 17]: 057
- % I (percentage inhibition) ([3]; clone IIIH6, inhibitor 1 PPM): 0.0%
- Absorbances × 1000 [3, 18]: 705
- % I (percentage inhibition) ([3]; clone IVE1, inhibitor 1 PPM): 34.1%
- Absorbances × 1000 [3, 19]: 539
- % I (percentage inhibition) ([3]; clone IVE4, inhibitor 1 PPM): 9.4%
- Absorbances × 1000 [3, 20]: 539
- % I (percentage inhibition) ([3]; clone IVF12, inhibitor 1 PPM): 18.9%
- Absorbances × 1000 [3, 21]: 073
- % I (percentage inhibition) ([3]; clone IVH2, inhibitor 1 PPM): 7.0%
- Absorbances × 1000 [3, 22]: 632
- Inhibitors (Absorbance) [4]: 0.504

Compound: Cn1sc(Cl)cc1=O [compound 651, 5-chloro-2-methyl-3-isothiazolone]
- Inhibition of antibody binding to coating antigen [1]: inhibitable
- Inhibitors (Absorbance) [1, 5]: 0.419
- Inhibitors (Absorbance) [1, 6]: 0.119
- Inhibitors (Absorbance) [1, 7]: 0.652
- Inhibitors (Absorbance) [1, 8]: 0.910
- Inhibitors (Absorbance) [1, 9]: 0.124
- Inhibitors (Absorbance) [1, 10]: 0.150
- Inhibitors (Absorbance) [1, 11]: 0.122
- Relative reactivity of the antibodies with the compounds tested ([2]; 89-147EH9 antibodies, 651 versus similar amounts of other biocides): more strongly reactive
- 10 Minute Absorbances × 1000 ([2]; inhibitor concentration 0.016 ppm): 491
- 10 Minute Absorbances × 1000 [2, 12]: 448
- 10 Minute Absorbances × 1000 [2, 13]: 338
- 10 Minute Absorbances × 1000 ([2]; inhibitor concentration 2 ppm): 185
- 10 Minute Absorbances × 1000 ([2]; inhibitor concentration 10 ppm): 106
- % I (percentage inhibition) ([3]; clone IA5, inhibitor 1 PPM): 34.1%
- Absorbances × 1000 [3, 14]: 348
- % I (percentage inhibition) ([3]; clone ID5, inhibitor 1 PPM): 26.5%
- Absorbances × 1000 [3, 15]: 429
- % I (percentage inhibition) ([3]; clone ID8, inhibitor 1 PPM): 0.0%
- Absorbances × 1000 [3, 16]: 807
- % I (percentage inhibition) ([3]; clone IID1, inhibitor 1 PPM): < 1.0%
- Absorbances × 1000 [3, 17]: 055
- % I (percentage inhibition) ([3]; clone IIIH6, inhibitor 1 PPM): 27.2%
- Absorbances × 1000 [3, 18]: 471
- % I (percentage inhibition) ([3]; clone IVE1, inhibitor 1 PPM): 44.7%
- Absorbances × 1000 [3, 19]: 452
- % I (percentage inhibition) ([3]; clone IVE4, inhibitor 1 PPM): 39.3%
- Absorbances × 1000 [3, 20]: 361
- % I (percentage inhibition) ([3]; clone IVF12, inhibitor 1 PPM): 27.8%
- Absorbances × 1000 [3, 21]: 065
- % I (percentage inhibition) ([3]; clone IVH2, inhibitor 1 PPM): 46.2%
- Absorbances × 1000 [3, 22]: 366
- Inhibitors (Absorbance) [4]: 0.186
